Experiments:
[1] = tested on: purple nutsedge; assay: Test B pre/postemergence purple nutsedge; format: in vivo, Cyperus rotundus; conditions: Preemergence
Procedure, shortened: (§1)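 Herbicidal effect was estimated by eye on a ten-point control scale after plants spent twelve to sixteen days in a greenhouse following soil or foliar treatment. Foliar sprays targeted plants at one to four leaves; all doses were formulated in a non-phytotoxic solvent with surfactant.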

[2] = tested on: bamyardgrass; assay: Test B flood test barnyardgrass; format: in vivo, Echinochloa crus-galli
Procedure, shortened: (§2)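 Plants were grown to the 2-leaf stage before treatment with test chemical, then held in a greenhouse for twelve to sixteen days. Injury was visually rated against untreated controls on a 0–10 scale, where 0 is no effect and 10 is complete control.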

[3] = tested on: soybean; assay: Test B pre/postemergence soybean; format: in vivo, Glycine max
Procedure, shortened: as §1

[4] = tested on: giant foxtail; assay: Test B pre/postemergence giant foxtail; format: in vivo, Setaria faberii
Procedure, shortened: as §1

[5] = tested on: smallflower flatsedge; assay: Test B flood test smallflower flatsedge; format: in vivo, Cyperus difformis
Procedure, shortened: as §2

[6] = tested on: wild oat; assay: Test B pre/postemergence wild oat; format: in vivo, Avena fatua
Procedure, shortened: as §1

[7] = tested on: surinam grass; assay: Test B pre/postemergence surinam grass; format: in vivo, Brachiaria decumbens
Procedure, shortened: as §1

[8] = tested on: cocklebur; assay: Test B pre/postemergence cocklebur; format: in vivo, Xanthium strumarium
Procedure, shortened: as §1

[9] = tested on: rape; assay: Test B pre/postemergence rape; format: in vivo, Brassica napus
Procedure, shortened: as §1

[10] = tested on: crabgrass; assay: Test B pre/postemergence crabgrass; format: in vivo, Digitaria sanguinalis
Procedure, shortened: as §1

[11] = tested on: morningglory; assay: Test B pre/postemergence morningglory; format: in vivo, Ipomoea hederacea
Procedure, shortened: as §1

[12] = tested on: blackgrass; assay: Test B pre/postemergence blackgrass; format: in vivo, Alopecurus myosuroides
Procedure, shortened: as §1

[13] = tested on: corn; assay: Test B pre/postemergence corn; format: in vivo, Zea mays
Procedure, shortened: as §1

[14] = tested on: velvetleaf; assay: Test B pre/postemergence velvetleaf; format: in vivo, Abutilon theophrasti
Procedure, shortened: as §1

[15] = tested on: sugar beet; assay: Test B pre/postemergence sugar beet; format: in vivo, Beta vulgaris
Procedure, shortened: as §1

[16] = tested on: pigweed; assay: Test B pre/postemergence pigweed; format: in vivo, Amaranthus retroflexus
Procedure, shortened: as §1

[17] = Postemergence, Rate 1000 g/ha, scale 0 to 10 (0 no effect, 10 complete control)
[18] = Rate 125 g/ha, Postemergence section (flood test species), scale 0 to 10, 0 no effect, 10 complete control
[19] = Rate 250 g/ha, headed Pre-emergence (flood test species), scale 0 to 10 (0 no effect, 10 complete control)
[20] = Rate 500 g/ha, headed Pre-emergence (flood test species), scale 0 to 10 (0 no effect, 10 complete control)
[21] = flood test, listed under Postemergence, Rate 250 g/ha, scale 0 to 10, 0 no effect, 10 complete control
[22] = Postemergence, Rate 250 g/ha, scale 0 to 10, 0 no effect, 10 complete control
[23] = Preemergence, Rate 125 g/ha, scale 0 to 10 (0 no effect, 10 complete control)
[24] = Preemergence, Rate 250 g/ha, scale of 0 to 10 where 0 is no effect and 10 is complete control
[25] = Preemergence, Rate 500 g/ha, scale 0 (no effect) to 10 (complete control)
[26] = Rate 125 g/ha, Postemergence, scale 0 to 10, 0 no effect, 10 complete control
[27] = Rate 1000 g/ha, Preemergence, scale 0 to 10 (0 no effect, 10 complete control)
[28] = Rate 500 g/ha, Postemergence, 0 to 10 scale (0 no effect, 10 complete control)

## CC(C)N(C(=O)n1oc(=O)n(-c2ccc(Cl)cc2Cl)c1=O)c1ccc(F)cc1 [Compound 7, 4-(2,4-Dichlorophenyl)-N-(4-fluorophenyl)-N-(1-methylethyl)-3,5-dioxo-1,2,4-oxadiazolidine-2-carboxamide]
[1]; Rate 125 g/ha, scale 0 to 10 (0 no effect, 10 complete control)
  Plant response rating, Nutsedge: 0
[1]; Rate 250 g/ha, scale of 0 to 10 where 0 is no effect and 10 is complete control
  Plant response rating, Nutsedge: 0
[1]; Rate 500 g/ha, scale 0 (no effect) to 10 (complete control)
  Nutsedge plant response rating: 0
[1]; Rate 1000 g/ha, scale 0 to 10 (0 no effect, 10 complete control)
  Plant response rating, Nutsedge: 0
[2]; [17]
  Barnyardgrass plant response rating: 0
[2]; [18]
  Barnyardgrass plant response rating: 0
[2]; [19]
  Barnyardgrass plant response rating: 0
[2]; Rate 500 g/ha, Postemergence section of Table B, 0 to 10 scale (0 no effect, 10 complete control)
  Barnyardgrass plant response rating: 0
[2]; [20]
  Plant response rating, Barnyardgrass: 0
[2]; Rate 1000 g/ha, Pre-emergence (as headed), scale 0 to 10
  Barnyardgrass plant response rating: 0
[2]; Rate 2000 g/ha, Pre-emergence (as headed), scale 0 to 10, 0 no effect, 10 complete control
  Barnyardgrass plant response rating: 0
[2]; [21]
  Barnyardgrass plant response rating: 0
[3]; [22]
  Soybean plant response rating: 1
[3]; [17]
  Soybean plant response rating: 5
[3]; [23]
  Plant response rating, Soybean: 0
[3]; [24]
  Plant response rating, Soybean: 0
[3]; [25]
  Soybean plant response rating: 0
[3]; [26]
  Soybean plant response rating: 0
[3]; [27]
  Plant response rating, Soybean: 0
[4]; [22]
  Giant foxtail plant response rating: 3
[4]; [17]
  Giant foxtail plant response rating: 6
[4]; [23]
  Plant response rating, Giant foxtail: 2
[4]; [24]
  Plant response rating, Giant foxtail: 5
[4]; [25]
  Giant foxtail plant response rating: 8
[4]; [26]
  Giant foxtail plant response rating: 0
[4]; [28]
  Giant foxtail plant response rating: 5
[4]; [27]
  Plant response rating, Giant foxtail: 9
[5]; [17]
  S. Flatsedge plant response rating: 0
[5]; Pre-emergence, Rate 1000 g/ha, scale 0 to 10 (0 no effect, 10 complete control)
  S. Flatsedge plant response rating: 0
[5]; [18]
  S. Flatsedge plant response rating: 0
[5]; [19]
  S. Flatsedge plant response rating: 0
[5]; [20]
  Plant response rating, S. Flatsedge: 0
[5]; Rate 2000 g/ha, Pre-emergence (as headed), scale 0 to 10
  S. Flatsedge plant response rating: 0
[5]; [21]
  S. Flatsedge plant response rating: 0
[6]; [22]
  Wild oats plant response rating: 0
[6]; [17]
  Wild oats plant response rating: 3
[6]; [23]
  Plant response rating, Wild oats: 0
[6]; [24]
  Plant response rating, Wild oats: 0
[6]; [25]
  Wild oats plant response rating: 0
[6]; [26]
  Wild oats plant response rating: 0
[6]; [27]
  Plant response rating, Wild oats: 0
[7]; [22]
  B. signalgrass plant response rating: 0
[7]; [17]
  B. signalgrass plant response rating: 6
[7]; [23]
  Plant response rating, B. signalgrass: 0
[7]; [24]
  Plant response rating, B. signalgrass: 0
[7]; [25]
  B. signalgrass plant response rating: 0
[7]; [26]
  B. signalgrass plant response rating: 0
[7]; [28]
  B. signalgrass plant response rating: 3
[7]; [27]
  Plant response rating, B. signalgrass: 3
[8]; [22]
  Cocklebur plant response rating: 0
[8]; [17]
  Cocklebur plant response rating: 2
[8]; [24]
  Plant response rating, Cocklebur: 0
[8]; [25]
  Cocklebur plant response rating: 0
[8]; [26]
  Cocklebur plant response rating: 0
[8]; [28]
  Cocklebur plant response rating: 0
[8]; [27]
  Plant response rating, Cocklebur: 0
[9]; [22]
  Rape plant response rating: 0
[9]; [17]
  Rape plant response rating: 0
[9]; [23]
  Plant response rating, Rape: 0
[9]; [24]
  Plant response rating, Rape: 0
[9]; [25]
  Rape plant response rating: 0
[9]; [26]
  Rape plant response rating: 0
[9]; [28]
  Rape plant response rating: 0
[9]; [27]
  Plant response rating, Rape: 0
[10]; [22]
  Crabgrass plant response rating: 1
[10]; [17]
  Crabgrass plant response rating: 5
[10]; [23]
  Plant response rating, Crabgrass: 7
[10]; [25]
  Crabgrass plant response rating: 8
[10]; [26]
  Crabgrass plant response rating: 0
[10]; [28]
  Crabgrass plant response rating: 3
[10]; [27]
  Plant response rating, Crabgrass: 8
[11]; [17]
  Morningglory plant response rating: 3
[11]; [23]
  Plant response rating, Morningglory: 0
[11]; [24]
  Plant response rating, Morningglory: 0
[11]; [25]
  Morningglory plant response rating: 0
[11]; [26]
  Morningglory plant response rating: 0
[11]; [28]
  Morningglory plant response rating: 0
[11]; [27]
  Plant response rating, Morningglory: 0
[12]; [22]
  Blackgrass plant response rating: 2
[12]; [17]
  Blackgrass plant response rating: 6
[12]; [23]
  Plant response rating, Blackgrass: 0
[12]; [24]
  Plant response rating, Blackgrass: 0
[12]; [25]
  Blackgrass plant response rating: 0
[12]; [26]
  Blackgrass plant response rating: 0
[12]; [28]
  Blackgrass plant response rating: 3
[12]; [27]
  Plant response rating, Blackgrass: 2
[13]; [22]
  Corn plant response rating: 0
[13]; [17]
  Corn plant response rating: 0
[13]; [23]
  Plant response rating, Corn: 0
[13]; [24]
  Plant response rating, Corn: 0
[13]; [25]
  Corn plant response rating: 0
[13]; [26]
  Corn plant response rating: 0
[13]; [28]
  Corn plant response rating: 0
[13]; [27]
  Plant response rating, Corn: 0
[14]; [22]
  Velvetleaf plant response rating: 0
[14]; [17]
  Velvetleaf plant response rating: 0
[14]; [23]
  Plant response rating, Velvetleaf: 0
[14]; [24]
  Plant response rating, Velvetleaf: 0
[14]; [25]
  Velvetleaf plant response rating: 0
[14]; [26]
  Velvetleaf plant response rating: 0
[14]; [27]
  Plant response rating, Velvetleaf: 0
[15]; [22]
  Sugarbeets plant response rating: 0
[15]; [17]
  Sugarbeets plant response rating: 2
[15]; [23]
  Plant response rating, Sugarbeets: 0
[15]; [24]
  Plant response rating, Sugarbeets: 0
[15]; [25]
  Sugarbeets plant response rating: 0
[15]; [26]
  Sugarbeets plant response rating: 0
[15]; [27]
  Plant response rating, Sugarbeets: 0
[16]; [22]
  Redroot pigweed plant response rating: 0
[16]; [17]
  Redroot pigweed plant response rating: 0
[16]; [23]
  Plant response rating, Redroot pigweed: 0
[16]; [24]
  Plant response rating, Redroot pigweed: 0
[16]; [25]
  Redroot pigweed plant response rating: 0
[16]; [26]
  Redroot pigweed plant response rating: 0
[16]; [28]
  Redroot pigweed plant response rating: 0
[16]; [27]
  Plant response rating, Redroot pigweed: 2

— patent US6737383B1, “Herbicidal oxadiazolidines” (priority 1999, dated 2004)
